In patent US8871781B2, “Methods and compositions for treating a subject for a lymphatic malformation” (The Board of Trustees of the Leland Stanford Junior …, priority 2011, dated 2014):
Entries after “also recorded” stand apart in the source; their conditions may differ.

What was measured:
Type in all cases: in vivo, human
lymphatic malformation [1] = test: Clinical trial: MRI before and after 20 weeks of sildenafil; conditions: for volume of the lymphatic malformation after 20 weeks: MRI; for decrease of the volume of the lymphatic malformation: over 20 weeks
Experimental: An additional 7 subjects were enrolled into a clinical trial. Sildenafil was administered substantially as described above in Examples 1-2. […] Three subjects completed the 20 week trial and had the follow up MRI completed; the remaining four subjects are still undergoing the trial.

lymphatic malformations = test: Pilot study: sildenafil for 12 weeks in two children with disabling LMs
Experimental: Based on the observation of marked regression in a lymphatic malformation after starting sildenafil, a pilot study to treat otherwise healthy children with LMs with sildenafil was approved by the Stanford University Human Research Protection Program (IRB). After informed consent was obtained, sildenafil (goal dose 1.0 mg/kg/dose TID) was administered to two children with disabling LMs for 12 weeks, and results are summarized in Table 1.

lymphatic malformation [2] = test: Index patient: infant with microcystic venolymphatic malformation given sildenafil for pulmonary hypertension
Source text: FIG. 1, Panels A-B depict pre- and post-treatment magnetic resonance imaging (MRI) contrast-enhanced images of a subject with a lymphatic malformation treated in accord with the subject methods. […] Contrast highlights the heart with right ventricular enlargement (dashed arrow), aorta, and pulmonary vessels.
An infant was born with massive enlargement of their right chest and arm. […], the infant developed tachypnea due to congestive heart failure and pulmonary edema. […] At 9 months, cardiac catheterization confirmed the diagnosis of idiopathic pulmonary hypertension and sildenafil was started (initially 0.5 mg/kg/dose TID and titrated to 0.75 mg/kg/dose TID). […] The post-MRI course was complicated by worsening cardiopulmonary interactions, respiratory failure and subsequent cardiac failure leading to their death.

[3] = Subject 1, LM of left orbit, upper and lower eyelids
[4] = Subject 2, LM of right axilla, after 12 weeks of treatment (FIG. 3, Panel B)
[5] = Subject 2, LM of right axilla, chest
[6] = Subject 2, LM of right upper back

Q: For CCCc1nn(C)c2c(=O)[nH]c(-c3cc(S(=O)(=O)N4CCN(C)CC4)ccc3OCC)nc12 [sildenafil], which “adverse events associated with the medication” value (lymphatic malformation [1]; 20 week trial) is on record?
A: The value was “no adverse events”.

Q: And the “volume of the lymphatic malformation after 20 weeks” value (“volume … after 20 weeks” for short) (lymphatic malformation [1]; first subject evaluated, 186 cc before sildenafil)?
A: Its value is 174 cc.

Q: What about the “decrease of the volume of the lymphatic malformation” value (“decrease” below) (lymphatic malformation [1]; first subject evaluated, 186 cc to 174 cc) of the same compound?
A: Its value is 6.45%.

Q: And the “volume … after 20 weeks” value (lymphatic malformation [1]; second subject evaluated, 46.5 cc before sildenafil)?
A: The value was 42.7 cc.

Q: What about the “decrease” value (lymphatic malformation [1]; second subject evaluated, 46.5 cc to 42.7 cc) of the same compound?
A: The value was 8.17%.

Q: And the “volume … after 20 weeks” value (lymphatic malformation [1]; third subject evaluated, 56.246 cc before sildenafil)?
A: The value was 51.732 cc.

Q: And the “decrease” value (lymphatic malformation [1]; third subject evaluated, 56.246 cc to 51.732 cc)?
A: The value was 8.03%.

Q: And the “change of the lesion after stopping the medication” value (lymphatic malformations; Subject 1)?
A: Its value is “enlargement of the lesion”.

Q: And the Adverse effects (lymphatic malformations; Subject 1, 12 weeks of therapy)?
A: Its Adverse effects is “Loose yellow”.

Q: What about the “clinical change of eyelid LM” value (lymphatic malformations; Subject 1, after 3 weeks of therapy) of the same compound?
A: The value was “improved eye opening and definition of the upper eyelid fold and superior palpebral sulcus”.

Q: What about the “improvement of LM” value (lymphatic malformations; Subject 1, at the end of treatment (12 weeks)) of the same compound?
A: The value was 25%.

Q: And the “Change in LM 4 weeks after discontinuing therapy” value (“Change in LM 4 weeks” below) (lymphatic malformations; [3])?
A: The value was “Enlargement”.

Q: And the “Parent impression of change in LM after 12 weeks of therapy” value (shortened to “Parent impression of change in LM”) (lymphatic malformations; [3])?
A: The value was “Fair”.

Q: What about the Adverse effects (lymphatic malformations; Subject 2, 12 weeks of therapy) of the same compound?
A: Its Adverse effects is “None”.

Q: And the “consistency of the lesion” value (lymphatic malformations; [4])?
A: Its value is “softer and saggier”.

Q: What about the “reduction in diameter of the lesion” value (lymphatic malformations; [4]) of the same compound?
A: The value was 1 cm.

Q: And the “improvement of LMs” value (lymphatic malformations; Subject 2, after 8 weeks of treatment)?
A: Its value is 50%.

Q: And the “improvement of LMs” value (lymphatic malformations; Subject 2, after 12 weeks of treatment)?
A: Its value is 75%.

Q: And the “appearance of the large LM affecting the back” value (lymphatic malformations; Subject 2, at the 12 week visit (FIG. 2, Panel C))?
A: The value was “appeared deflated”.

Q: What about the “change of the LMs after stopping the medication” value (lymphatic malformations; Subject 2, four weeks after stopping (FIG. 2, Panel D)) of the same compound?
A: Its value is “mild enlargement”.

Q: And the “Change in LM 4 weeks” value (lymphatic malformations; Subject 2, LM of left forearm)?
A: The value was “Stable”.

Q: What about the “Parent impression of change in LM” value (lymphatic malformations; Subject 2, LM of left forearm) of the same compound?
A: Its value is “Good”.

Q: What about the “Change in LM 4 weeks” value (lymphatic malformations; [5]) of the same compound?
A: The value was “Stable”.

Q: And the “Parent impression of change in LM” value (lymphatic malformations; [5])?
A: The value was “Good”.

Q: What about the “Change in LM 4 weeks” value (lymphatic malformations; [6]) of the same compound?
A: Its value is “Enlargement”.

Q: What about the “Parent impression of change in LM” value (lymphatic malformations; [6]) of the same compound?
A: The value was “Good”.

Q: What about the tolerability (lymphatic malformations; two children, 12 weeks, goal dose 1.0 mg/kg/dose TID) of the same compound?
A: The tolerability was “tolerated without significant adverse effects”.

Q: And the “MRI finding of the malformation after therapy” value (lymphatic malformation [2]; cardiac MRI (FIG. 1, Panel B))?
A: Its value is “minimal residual lymphatic malformation; also recorded: near complete resolution of the malformation”.

Q: And the “role of sildenafil in the patient's death” value (lymphatic malformation [2]; death from respiratory and cardiac failure)?
A: Its value is “not thought to play a role in their death”.

Q: And the “skin examination of the malformation” value (lymphatic malformation [2]; four months after starting sildenafil)?
A: The value was “thin, bluish plaque and redundant tissue”.

Q: And the “change in size of the malformation” value (lymphatic malformation [2]; sildenafil, 0.5 titrated to 0.75 mg/kg/dose TID)?
A: The value was “gradually decreased in size”.
